pIC50: −log10 of the molar value. Where two headings read alike, the source gives them in different places.
Assays:
histamine-H1 receptors = target: T1, histamine-H1 receptors (Cavia porcellus, UniProt P31389); assay: Histamine-H1 receptor binding assay ([3H]-mepyramine displacement); design: species or system guinea pig
T1 construct: performed in guinea pig cerebellum membranes as described previously; from tissue; host or cells: guinea pig cerebellum membranes
Protocol: Briefly, the membrane suspensions (160 μg/ml) were incubated at 30° C. with 0.7 nM [^3H]-mepyramine and different concentrations of the test compounds in a final volume of 250 μl. Binding reactions were terminated by filtration after 30 min of incubation and the bound radioactivity was determined. The specific binding was measured in the presence of 10 μM of promethazine. The affinity of each test compound to the receptor was determined by using at least six different concentrations run in duplicate. IC50 values were obtained by non-linear regression by use of SAS on a DEC AXP computer.

[1] = tested on: histamine induced skin vascular permeability; assay: Histamine-induced skin vascular permeability in rats; format: in vivo; details: Rattus norvegicus; male Wistar rats, oral, dose of 1 mg/Kg, 4 hours after administration, vs vehicle treated group
Protocol: Male Wistar rats (180–210 g) were treated orally with the test compound or vehicle. 1, 4, 8 and 24 hours later, the rats were lightly anaesthetized with ether. The cutaneous reaction was induced by two intradermal injections of 50 μl of histamine (100 μg/ml) onto the back, followed by a intravenous injection of 3 ml/kg of Evan's Blue (5 mg/ml), both dissolved in saline. Sixty min later, the rats were killed by cervical dislocation and the back skin dissected free. The diameter (in millimeters) of the papule was measured in two directions and the area was calculated.

[2] = guinea pig cerebellum membranes, 0.7 nM [3H]-mepyramine, 30 min at 30° C., read-out: Binding to receptor H1 (IC50)

T1 sequence (P31389 whole entry): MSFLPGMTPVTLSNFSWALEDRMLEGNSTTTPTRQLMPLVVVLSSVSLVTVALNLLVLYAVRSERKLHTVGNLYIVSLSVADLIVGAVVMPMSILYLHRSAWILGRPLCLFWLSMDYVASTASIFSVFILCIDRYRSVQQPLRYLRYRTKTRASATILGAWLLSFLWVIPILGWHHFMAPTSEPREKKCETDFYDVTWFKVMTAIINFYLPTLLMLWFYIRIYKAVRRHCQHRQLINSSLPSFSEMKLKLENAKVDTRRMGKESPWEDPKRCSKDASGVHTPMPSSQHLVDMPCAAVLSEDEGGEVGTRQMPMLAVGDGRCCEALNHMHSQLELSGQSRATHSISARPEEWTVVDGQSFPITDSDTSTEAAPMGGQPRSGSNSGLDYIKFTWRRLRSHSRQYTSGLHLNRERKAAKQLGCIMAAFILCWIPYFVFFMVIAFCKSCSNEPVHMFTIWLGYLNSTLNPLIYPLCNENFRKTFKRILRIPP

With O=C(O)c1ccccc1OCCN1CCC(c2cn(CC3OCCO3)c3ccccc23)CC1 [Example 1, 2-{2-[4-(1-[1,3]dioxolan-2-ylmethyl-1H-indol-3-yl)-piperidin-1-yl]-ethoxy}-benzoic acid] the pIC50 (histamine-H1 receptors; [2]) was 6.70.

O=C(O)c1ccccc1OCCN1CCC(c2cn(Cc3ccncc3)c3ccccc23)CC1 [Example 3, 2-{2-[4-(1-pyridin-4-ylmethyl-1H-indol-3-yl)-piperidin-1-yl]-ethoxy}-benzoic acid] gave a pIC50 (histamine-H1 receptors; [2]) of 6.57.

Cn1ccnc1SCCCn1cc(C2CCN(CCOc3ccccc3C(=O)O)CC2)c2ccccc21 [Example 6, 2-[2-(4-{1-[3-(1-methyl-1H-imidazol-2-ylsulfanyl)-propyl]-1H-indol-3-yl}-piperidin-1-yl)-ethoxy]-benzoic acid] gave a pIC50 (histamine-H1 receptors; [2]) of 6.33.

O=C(O)c1ccccc1OCCN1CCC(c2cn(Cc3ccco3)c3ccccc23)CC1 [Example 9, 2-{2-[4-(1-furan-2-ylmethyl-1H-indol-3-yl)-piperidin-1-yl]-ethoxy}-benzoic acid] gave a pIC50 (histamine-H1 receptors; [2]) of 7.01.

With O=C(O)c1ccccc1OCCN1CCC(c2cn(Cc3ccsc3)c3ccccc23)CC1 [Example 11, 2-{2-[4-(1-thiophen-3-ylmethyl-1H-indol-3-yl)-piperidin-1-yl]-ethoxy}-benzoic acid] the pIC50 (histamine-H1 receptors; [2]) was 6.40.

O=C(O)c1ccccc1OCCN1CCC(c2cn(CCc3cccs3)c3ccccc23)CC1 [Example 12, 2-(2-{4-[1-(2-thiophen-2-yl-ethyl)-1H-indol-3-yl]-piperidin-1-yl}-ethoxy)-benzoic acid] was tested, and the pIC50 (histamine-H1 receptors; [2]) was 7.37.

O=C(O)c1ccccc1OCCN1CCC(c2cn(CCc3ccsc3)c3ccccc23)CC1 [Example 13, 2-(2-{4-[1-(2-thiophen-3-yl-ethyl)-1H-indol-3-yl]-piperidin-1-yl}-ethoxy)-benzoic acid] gave a pIC50 (histamine-H1 receptors; [2]) of 7.23.

Compound O=C(O)c1ccccc1OCCN1CCC(c2cn(CCCOc3ccc4c(c3)OCO4)c3ccccc23)CC1 [Example 16, 2-[2-(4-{1-[3-(benzo[1,3]dioxol-5-yloxy)propyl]-1H-indol-3-yl}piperidin-1-yl)ethoxy]benzoic acid] has a pIC50 (histamine-H1 receptors; [2]) of 7.11.

For O=C(O)c1ccccc1OCCN1CCC(c2cn(Cc3ccc(Cl)s3)c3ccccc23)CC1 [Example 19, 2-(2-{4-[1-(5-chloro-thiophen-2-ylmethyl)-1H-indol-3-yl]-piperidin-1-yl}-ethoxy)-benzoic acid], the pIC50 (histamine-H1 receptors; [2]) was 6.92.

For O=C(O)c1ccccc1OCCN1CCC(c2cn(CCCC3OCCO3)c3ccccc23)CC1 [Example 21, 2-(2-{4-[1-(3-[1,3]dioxolan-2-yl-propyl)-1H-indol-3-yl]-piperidin-1-yl}-ethoxy)-benzoic acid], the pIC50 (histamine-H1 receptors; [2]) was 6.53.

In the case of O=C(O)c1ccccc1OCCN1CCC(c2cn(Cc3ccco3)c3cc(F)ccc23)CC1 [Example 22, 2-{2-[4-(6-fluoro-1-furan-2-ylmethyl-1H-indol-3-yl)-piperidin-1-yl]-ethoxy}-benzoic acid], the inhibition in vivo at 1 mg/kg [1] was greater than 50%.

O=C(O)c1ccccc1OCCN1CCC(c2cn(CCC3OCCO3)c3ccccc23)CC1 [Example 23, 2-(2-{4-[1-(2-[1,3]dioxolan-2-yl-ethyl)-1H-indol-3-yl]-piperidin-1-yl}-ethoxy)-benzoic acid] gave an inhibition in vivo at 1 mg/kg [1] greater than 50% and a pIC50 (histamine-H1 receptors; [2]) of 6.45.

Work on O=C(O)c1ccccc1OCCN1CCC(c2cn(CCC3OCCO3)c3cc(F)ccc23)CC1 [Example 24, 2-(2-{4-[1-(2-[1,3]dioxolan-2-yl-ethyl)-6-fluoro-1H-indol-3-yl]-piperidin-1-yl}-ethoxy)-benzoic acid] yielded an inhibition in vivo at 1 mg/kg [1] greater than 50% and a pIC50 (histamine-H1 receptors; [2]) of 7.29.

Work on O=C(O)c1cccc(CN2CCC(c3cn(Cc4cccs4)c4ccccc34)CC2)c1 [Example 25, 3-[4-(1-thiophen-2-ylmethyl-1H-indol-3-yl)-piperidin-1-ylmethyl]-benzoic acid] yielded a pIC50 (histamine-H1 receptors; [2]) of 7.05.

In the case of O=C(O)c1cccc(CN2CCC(c3cn(CCC4OCCO4)c4ccccc34)CC2)c1 [Example 28, 3-{4-[1-(2-[1,3]dioxolan-2-yl-ethyl)-1H-indol-3-yl]-piperidin-1-ylmethyl}-benzoic acid], the pIC50 (histamine-H1 receptors; [2]) was 6.69.

Compound O=C(O)c1cc(CN2CCC(c3cn(CCCOc4ccc5c(c4)OCO5)c4ccccc34)CC2)ccc1F [Example 50, 5-(4-{1-[3-(benzo[1,3]dioxol-5-yloxy)-propyl]-1H-indol-3-yl}-piperidin-1-ylmethyl)-2-fluoro-benzoic acid] has a pIC50 (histamine-H1 receptors; [2]) of 6.81.

With COc1ccc(CN2CCC(c3cn(CCc4cccs4)c4cc(F)ccc34)CC2)cc1C(=O)O [Example 69, 5-{4-[6-fluoro-1-(2-thiophen-2-yl-ethyl)-1H-indol-3-yl]-piperidin-1-ylmethyl}-2-methoxy-benzoic acid] the pIC50 (histamine-H1 receptors; [2]) was 6.87.

COc1ccc(CN2CCC(c3cn(Cc4cccs4)c4ccccc34)CC2)cc1C(=O)O [Example 73, 2-methoxy-5-[4-(1-thiophen-2-ylmethyl-1H-indol-3-yl)-piperidin-1-ylmethyl]-benzoic acid] showed an inhibition in vivo at 1 mg/kg [1] greater than 50% and a pIC50 (histamine-H1 receptors; [2]) of 6.90.

For COc1ccc(CN2CCC(c3cn(CCc4ccsc4)c4ccccc34)CC2)cc1C(=O)O [Example 75, 2-methoxy-5-{4-[1-(2-thiophen-3-yl-ethyl)-1H-indol-3-yl]-piperidin-1-ylmethyl}-benzoic acid], the inhibition in vivo at 1 mg/kg [1] was greater than 50% and the pIC50 (histamine-H1 receptors; [2]) was 7.28.

O=C(O)c1ccccc1OCCN1CCC(c2cn(CCOc3ccc4c(c3)OCO4)c3ccccc23)CC1 [Example 77, 2-[2-(4-{1-[2-(benzo[1,3]dioxol-5-yloxy)-ethyl]-1H-indol-3-yl}-piperidin-1-yl)-ethoxy]-benzoic acid] was tested, and the pIC50 (histamine-H1 receptors; [2]) was 6.94.

COc1ccc(CN2CCC(c3cn(CCc4ccsc4)c4cc(F)ccc34)CC2)cc1C(=O)O [Example 78, 5-{4-[6-fluoro-1-(2-thiophen-3-yl-ethyl)-1H-indol-3-yl]-piperidin-1-ylmethyl}-2-methoxy-benzoic acid] showed an inhibition in vivo at 1 mg/kg [1] greater than 50% and a pIC50 (histamine-H1 receptors) of 7.19.

Work on COc1ccc(CN2CCC(c3cn(Cc4ccc(Cl)s4)c4cc(F)ccc34)CC2)cc1C(=O)O [Example 79, 5-{4-[1-(5-chloro-thiophen-2-ylmethyl)-6-fluoro-1H-indol-3-yl]-piperidin-1-ylmethyl}-2-methoxy-benzoic acid] yielded an inhibition in vivo at 1 mg/kg [1] greater than 50% and a pIC50 (histamine-H1 receptors; [2]) of 6.82.

With COc1ccc(CN2CCC(c3cn(Cc4ccoc4)c4cc(F)ccc34)CC2)cc1C(=O)O [Example 80, 5-[4-(6-fluoro-1-furan-3-ylmethyl-1H-indol-3-yl)-piperidin-1-ylmethyl]-2-methoxy-benzoic acid] the inhibition in vivo at 1 mg/kg [1] was greater than 50% and the pIC50 (histamine-H1 receptors; [2]) was 7.02.

COc1ccc(CN2CCC(c3cn(Cc4cccs4)c4cc(F)ccc34)CC2)cc1C(=O)O [Example 82, 5-[4-(6-fluoro-1-thiophen-2-ylmethyl-1H-indol-3-yl)-piperidin-1-ylmethyl]-2-methoxy-benzoic acid] was tested, and the inhibition in vivo at 1 mg/kg [1] was greater than 50% and the pIC50 (histamine-H1 receptors; [2]) was 7.04.

COc1ccc(CN2CCC(c3cn(Cc4ccco4)c4ccccc34)CC2)cc1C(=O)O [Example 85, 5-[4-(1-furan-2-ylmethyl-1H-indol-3-yl)-piperidin-1-ylmethyl]-2-methoxy-benzoic acid] showed an inhibition in vivo at 1 mg/kg [1] greater than 50% and a pIC50 (histamine-H1 receptors; [2]) of 7.00.

Compound COc1ccc(CN2CCC(c3cn(Cc4ccoc4)c4ccccc34)CC2)cc1C(=O)O [Example 86, 5-[4-(1-furan-3-ylmethyl-1H-indol-3-yl)-piperidin-1-ylmethyl]-2-methoxy-benzoic acid] has an inhibition in vivo at 1 mg/kg [1] greater than 50% and a pIC50 (histamine-H1 receptors; [2]) of 6.81.

With COc1ccc2c(c1)c(C1CCN(CCOc3ccccc3C(=O)O)CC1)cn2CCc1ccsc1 [Example 88, 2-(2-{4-[5-methoxy-1-(2-thiophen-3-yl-ethyl)-1H-indol-3-yl]-piperidin-1-yl}-ethoxy)-benzoic acid] the pIC50 (histamine-H1 receptors; [2]) was 7.29.

With O=C(O)c1cccc(CN2CCC(c3cn(Cc4ccco4)c4cc(F)ccc34)CC2)c1 [Example 96, 3-[4-(6-fluoro-1-furan-2-ylmethyl-1H-indol-3-yl)-piperidin-1-ylmethyl]-benzoic acid] the pIC50 (histamine-H1 receptors; [2]) was 6.97.

With O=C(O)c1ccccc1OCCN1CCC(c2cn(CCc3ccsc3)c3cc(F)ccc23)CC1 [Example 110, 2-(2-{4-[6-fluoro-1-(2-thiophen-3-yl-ethyl)-1H-indol-3-yl]-piperidin-1-yl}-ethoxy)-benzoic acid] the pIC50 (histamine-H1 receptors; [2]) was 7.64.

O=C(O)c1ccccc1OCCN1CCC(c2cn(Cc3ccoc3)c3cc(F)ccc23)CC1 [Example 112, 2-{2-[4-(6-fluoro-1-furan-3-ylmethyl-1H-indol-3-yl)-piperidin-1-yl]-ethoxy}-benzoic acid] showed a pIC50 (histamine-H1 receptors; [2]) of 7.51.

Source: patent publication US7189741B2, “Indolylpiperidine derivatives as antihistaminic and antiallergic agents” (Almirall Prodesfarma S.A., priority 2000, dated 2007)
